# According to PubChem BioAssay (NCI):
#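 How tested: cells in 96-well plates exposed to compound for 48 hours at five concentrations. GI50 = concentration required for 50% inhibition of growth. TGI: total growth inhibition.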
# Key:
# Test in all cases: DTP human tumour cell line panel, 48 h
# UO-31 renal = system: UO-31 renal
# SF-539 CNS = system: SF-539 CNS
# OVCAR-3 ovarian = system: OVCAR-3 ovarian
# UACC-257 melanoma = system: UACC-257 melanoma
# IGROV1 ovarian = system: IGROV1 ovarian
# COLO 205 colon = system: COLO 205 colon
# SK-OV-3 ovarian = system: SK-OV-3 ovarian
# HCC-2998 colon = system: HCC-2998 colon
# EKVX NSCLC = system: EKVX NSCLC
# A549 NSCLC = system: A549 NSCLC
SMILES,TGI (UO-31 renal),TGI (SF-539 CNS),TGI (OVCAR-3 ovarian),TGI (UACC-257 melanoma),TGI (IGROV1 ovarian),TGI (COLO 205 colon),TGI (SK-OV-3 ovarian),TGI (HCC-2998 colon),TGI (EKVX NSCLC),TGI (A549 NSCLC),GI50 (UO-31 renal),GI50 (SF-539 CNS),GI50 (OVCAR-3 ovarian),GI50 (UACC-257 melanoma),GI50 (IGROV1 ovarian),GI50 (COLO 205 colon),GI50 (SK-OV-3 ovarian),GI50 (HCC-2998 colon),GI50 (EKVX NSCLC),GI50 (A549 NSCLC)
O=C(O)C1C(Br)(c2ccccc2)C1(Br)c1ccccc1 (centres undefined),47.2 µM,> 100 µM,> 100 µM,> 100 µM,> 100 µM,37.8 µM,81 µM,53.7 µM,> 100 µM,> 100 µM,,,,,,,,,,
O=C(Nc1c(Cl)cc([N+](=O)[O-])cc1Cl)C(=O)C(C1OC(=O)c2ccccc21)[N+](=O)[O-] (centres undefined),> 100 µM,> 100 µM,> 100 µM,> 100 µM,> 100 µM,> 100 µM,> 100 µM,> 100 µM,> 100 µM,> 100 µM,,,,,,,,,,
CC/C=C\C[C@H]1C/C=C2/C(=O)C=C[C@@H]2C/C=C\CCCC(=O)O1,2.48 µM,2.67 µM,3.9 µM,5.23 µM,4.28 µM,2.64 µM,12.9 µM,3.22 µM,5.89 µM,9.05 µM,1.13 µM,0.855 µM,0.734 µM,1.78 µM,1.69 µM,0.708 µM,3.99 µM,1.76 µM,2.04 µM,2.23 µM
C[C@]12CC[C@@H]3c4cc(OCC(F)(F)F)c(O)cc4/C(=N/O)C[C@H]3[C@@H]1CC[C@@H]2O,20.8 µM,0.0725 µM,0.0269 µM,45.5 µM,20 µM,35.3 µM,0.439 µM,11.4 µM,28.9 µM,35.6 µM,0.149 µM,,,,,,,,,
O=S(=O)(Nc1cc(Sc2cccc3cccnc23)c(O)c2ccccc12)c1ccccc1,4.76 µM,5.13 µM,3.9 µM,5.01 µM,6 µM,3.7 µM,17.9 µM,19.1 µM,8.55 µM,18.1 µM,0.734 µM,0.957 µM,0.817 µM,1.87 µM,1.01 µM,1.71 µM,4.3 µM,4.77 µM,1.01 µM,0.747 µM
COc1ccc2cc(C(C)C(=O)N3CCOC3=O)ccc2c1 (centres undefined),> 100 µM,> 100 µM,> 100 µM,> 100 µM,> 100 µM,> 100 µM,> 100 µM,> 100 µM,> 100 µM,> 100 µM,,,,,,,,,,
O=C1NC(=O)C(CC2CCCCCCCCCCC2=O)C(=O)N1 (centres undefined),> 100 µM,> 100 µM,> 100 µM,> 100 µM,> 100 µM,> 100 µM,> 100 µM,> 100 µM,> 100 µM,> 100 µM,,,,,,,,,,
C/C(CC(=O)NCCc1ccccc1)=N\NC(=O)C[n+]1ccccc1,> 100 µM,> 100 µM,> 100 µM,> 100 µM,> 100 µM,> 100 µM,> 100 µM,> 100 µM,> 100 µM,> 100 µM,,,,,,,,,,
CCCCON(OC(=O)c1ccc2ccc3cccc4ccc1c2c34)C(C)=O,42.4 µM,35.6 µM,82.7 µM,> 100 µM,55.2 µM,98.9 µM,> 100 µM,> 100 µM,> 100 µM,> 100 µM,19.5 µM,18.5 µM,31.8 µM,60.3 µM,16.5 µM,24.9 µM,40.1 µM,38.5 µM,27.3 µM,39.1 µM
Cc1ccc2[nH]c(O)c(N=Nc3ccc(S(N)(=O)=O)cc3)c2c1,> 25 µM,> 25 µM,> 18.4 µM,> 25 µM,> 25 µM,> 25 µM,> 25 µM,> 25 µM,> 25 µM,> 25 µM,12.7 µM,8.73 µM,6.73 µM,> 25 µM,> 16.1 µM,> 24.2 µM,19.9 µM,14.8 µM,> 25 µM,9.66 µM
C=C1C(=O)OC2/C=C(\COC(C)=O)CCC(OC(C)=O)C3=CC(OC3=O)C12 (centres undefined),35.5 µM,16.4 µM,12.4 µM,6.65 µM,> 56.3 µM,6.54 µM,28.4 µM,29.2 µM,34.3 µM,43 µM,,,,,,,,,,
O=C1/C(=C/c2cccc([N+](=O)[O-])c2)COc2ccc(Br)cc21,> 100 µM,> 100 µM,> 100 µM,> 100 µM,> 100 µM,> 100 µM,> 100 µM,> 100 µM,> 100 µM,> 100 µM,,,,,,,,,,
Clc1ccc2c(c1)-c1c3c(nn1-c1ccccc1)-c1ccccc1SC3O2 (centres undefined),> 100 µM,> 100 µM,> 100 µM,> 100 µM,> 100 µM,> 100 µM,> 100 µM,> 100 µM,> 100 µM,> 100 µM,,,,,,,,,,
C=CC[C@]12C=C(OC)[C@@H](O)[C@](OC)(C(c3cc(OC)c4c(c3)OCO4)[C@H]1C)[C@H]2OC(C)=O (some centres undefined),> 100 µM,> 100 µM,> 100 µM,> 100 µM,> 100 µM,> 100 µM,> 100 µM,> 100 µM,> 100 µM,> 100 µM,,,,,,,,,,
CCSc1nc(SCC)c2cn[nH]c2n1,> 100 µM,82.9 µM,> 100 µM,> 100 µM,> 100 µM,> 100 µM,> 100 µM,> 100 µM,> 100 µM,> 100 µM,34.9 µM,21.8 µM,38.8 µM,89 µM,49 µM,34.4 µM,39 µM,35.6 µM,18.9 µM,46.5 µM
COc1cc(C(=O)c2cc(C)c3[nH]c4ccc(C)cc4c3c2C)cc(OC)c1OC,> 100 µM,< 0.01 µM,,> 100 µM,,0.0369 µM,> 100 µM,> 100 µM,> 100 µM,> 100 µM,< 0.01 µM,< 0.01 µM,< 0.01 µM,4.5 µM,< 0.01 µM,< 0.01 µM,< 0.0307 µM,< 0.01 µM,< 0.01 µM,< 0.01 µM
